Laboratory results: PMC3139435 (Bioorganic & medicinal chemistry letters, 2011)
Like-named read-outs stand apart in the source and are kept apart here.

Tests used:
[1] = target: T1, human MIF (Homo sapiens, UniProt P14174); assay: Mass spectrometric; conditions: 30 µM each of MIF and compound, one hour at 25 °C
T1 sequence (P14174 2-115 limits assumed): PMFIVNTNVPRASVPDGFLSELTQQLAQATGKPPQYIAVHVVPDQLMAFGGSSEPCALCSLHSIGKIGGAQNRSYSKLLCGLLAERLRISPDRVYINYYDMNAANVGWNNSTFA

[2] = system: MIF-dependent ERK1/2 phosphorylation; conditions: synovial fibroblasts; for effect on MIF-enhanced ERK phosphorylation (in words): co-administration with MIF, Figure 2
[3] = target: T1, human MIF; conditions: cited from earlier work

For O=c1c2ccc(F)cc2sn1-c1ccc(Cl)cc1 [1a, 2-(4-chlorophenyl)-6-fluoro-benzo[d]isothiazol-3(2H)-one], the “fraction of MIF covalently modified” value [1] was “ca. 3%”.
For N#Cc1ccc(-n2sc3cc(F)ccc3c2=O)cc1 [1c], the “effect on MIF-enhanced ERK phosphorylation (in words)” value [2] was “substantial reduction of phosphorylation”.
For O=c1c2ccc(O)cc2sn1-c1ccc(Cl)cc1 [1w], the “reduction of ERK phosphorylation” value ([2]; at 100 nM, added with MIF for 30 minutes) was 20%, the “reduction of ERK phosphorylation” value ([2]; at 1 µM, added with MIF for 30 minutes) was 35% and the “effect on MIF-enhanced ERK phosphorylation (in words)” value [2] was “substantial reduction of phosphorylation”.
For Ic1cc(-c2ccccc2)ncn1 [4-IPP, 4-iodo-6-phenylpyrimidine], the “fraction of the protein (MIF) covalently modified” value [3] is listed as “ca. 20%”.
In the case of COC(=O)CC1CC(c2ccc(O)cc2)=NO1 (stereo not shown) [ISO-1, reference compound], the “reduction of ERK phosphorylation” value ([2]; at 2 µM, racemate) is reported as 19%.
